Measurements published in patent publication US9120816B2, “Oxanorbornadiene derivatives and their anticancer activities” (priority 2012, dated 2015).
Read-outs that look alike come from different tables or passages of the source.

Assays:
[1] = tested on: MDA-MB-231 (human breast adenocarcinoma); assay: MTT cytotoxicity assay, MDA-MB-231; type: cell-based; details: for IC50: Homo sapiens, MDA-MB-231
Method: (§1) Cytotoxic activities of all compounds are evaluated by MTT assay using KYSE-150 (human oesophagus carcinoma), MKN-45 (human gastric aednocarcinoma), DLD-1 (human colorectal carcinoma cell line), HepG2 (human hepatocellular carcinoma), MCF-7 (human breast adenocarcinoma), and MDA-MB-231 (human breast adenocarcinoma). Canthatidin is used as positive control.
(§2) Cells are seeded in a 96-well plate (4×10^3 cells/well) and allowed to attach overnight.
(§3) After the recovery, cells are treated with 1.56 μM, 3.125 μM, 6.25 μM, 12.5 μM, 25 μM, 50 μM of each of the compounds in culture medium for 48 hrs. […] Finally, the culture medium is removed and 200 μL of DMSO are added to each well to dissolve the purple formazan crystals.

[2] = tested on: KYSE-150 (human oesophagus carcinoma); assay: MTT cytotoxicity assay, KYSE-150; type: cell-based; details: for IC50: Homo sapiens, KYSE-150
Method: as §1, §2, §3

[3] = tested on: DLD-1 (human colorectal carcinoma cell line); assay: MTT cytotoxicity assay, DLD-1; type: cell-based; details: for IC50: Homo sapiens, DLD-1
Method: as §1, §2, §3

[4] = tested on: MCF-7 (human breast adenocarcinoma); assay: MTT cytotoxicity assay, MCF-7; type: cell-based; details: for IC50: Homo sapiens, MCF7
Method: as §1, §2, §3

[5] = tested on: HepG2 (human hepatocellular carcinoma); assay: MTT cytotoxicity assay, HepG2; type: cell-based; details: 48 hrs treatment
Method: as §1, §2, §3

[6] = tested on: MKN-45 (human gastric aednocarcinoma); assay: MTT cytotoxicity assay, MKN-45; type: cell-based; details: 48 hrs treatment
Method: as §1, §2, §3

KYSE-150 cells = assay: Wound healing assay; type: cell-based, human; details: for Cell migration into the wound: KYSE-150 monolayer, 72 h, 1 and 2.5 μM/mL; for Viability of KYSE-150 cells as compared to controls: highest concentration of 1 μM/mL and 2.5 μM/mL
Method: In addition, wound healing assay is used to test whether the compounds 1, 2 and 3 could affect cell motility.
A wound healing assay is performed as follows: KYESE-150 cells are seeded in each well of the 12-well plate at 50% confluence in completed medium. After 24 hrs seeding, the monolayer is wounded by scoring with a sterile plastic tip (1 mL), then washed several times with medium to remove cell debris and then incubated in conditioned medium in the absence or presence of the tested compounds for various periods of time up to 72 h. […] Cell migration into the wound surface is monitored by Olympus IX71 microscopy and digitally photographed.

[7] = MTT, 48 hrs treatment, read-out: Cytotoxicity IC50, MDA-MB-231
[8] = MTT, 48 hrs treatment, read-out: Cytotoxicity IC50, KYSE-150
[9] = MTT, 48 hrs treatment, read-out: Cytotoxicity IC50, DLD-1
[10] = MTT, 48 hrs treatment, read-out: Cytotoxicity IC50, MCF-7

SMILES | IC50 [1, 7] | IC50 [2, 8] | IC50 [3, 9] | IC50 [4, 10] | IC50 [5] | IC50 [6] | Cell migration into the wound (KYSE-150 cells) | Viability of KYSE-150 cells as compared to controls (KYSE-150 cells) | IC50 ([1]; summary statement in conclusion, read-out: IC50 of cell growth inhibition, MDA-MB-231) | IC50 ([2]; summary statement in conclusion, read-out: IC50 of cell growth inhibition, KYSE-150) | IC50 ([3]; summary statement in conclusion, read-out: IC50 of cell growth inhibition, DLD-1) | IC50 ([4]; summary statement in conclusion, read-out: IC50 of cell growth inhibition, MCF-7) | Growth inhibition of MDA-MB-231 cells as compared to positive control ([1]; compared with canthatidin) | Growth inhibition of KYSE-150 cells as compared to positive control ([2]; compared with canthatidin) | Growth inhibition of MCF-7 cells as compared to positive control ([4]; compared with canthatidin) | Growth inhibition of DLD-1 cells as compared to positive control ([3]; compared with canthatidin)
C[C@@]12C(=O)OC(=O)[C@]1(C)[C@H]1CC[C@@H]2O1 [Cantharidin, reference compound] | 4.69 µM | 3.1 µM | 13.9 µM | 13 µM | 3.1 µM | 4.52 µM | – | – | – | – | – | – | – | – | – | –
COC(=O)C1=C(C(=O)OC)C2OC1CC2C#Cc1ccc(OC)cc1 (centres unmarked) [Compound 1] | 2.3 µM | 1.82 µM | 6 µM | 2.46 µM | 6.2 µM | 21.3 µM | do not migrate into the wound | do not alter the viability | < 10 µM | < 10 µM | < 10 µM | < 10 µM | – | – | – | –
CCOC(=O)C1=C(C(=O)OCC)C2OC1CC2C#Cc1ccc(OC)cc1 (centres unmarked) [Compound 2] | 2.81 µM | 1.4 µM | 1.74 µM | 6.39 µM | 15.7 µM | 26 µM | do not migrate into the wound | do not alter the viability | – | – | – | – | growth-inhibiting effects | growth-inhibiting effects | growth-inhibiting effects | –
COc1ccc(C#CC2CC3OC2C(C(=O)OC(C)(C)C)=C3C(=O)OC(C)(C)C)cc1 (centres unmarked) [Compound 3] | 50.2 µM | 5.4 µM | 3.77 µM | 33.4 µM | 8.4 µM | 6.31 µM | do not migrate into the wound | do not alter the viability | – | – | – | – | – | – | – | growth-inhibiting effects
